According to ChEMBL document CHEMBL1201862, “PubChem BioAssay data set” (2004):
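96-well plates; 48 h exposure; 5 concentrations. Endpoints by linear interpolation between flanking doses. Not reached: highest tested concentration assigned. GI50: concentration for 50% inhibition of growth.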 The source made the active and inactive calls. Cut-off read from the data, not from the text of the source: active = GI50 up to about 1.1 µM and inactive = higher.

Assays:
Assay in all cases: NCI-60 cell line screen, 48 h
[1] = system: MDA-N
[2] = system: PC-3
[3] = system: NCI/ADR-RES
[4] = system: MOLT-4
[5] = system: SNB-75
[6] = system: NCI-H23
[7] = system: NCI-H522
[8] = system: SF-295
[9] = system: UO-31
[10] = system: KM12
[11] = system: EKVX
[12] = system: T47D
[13] = system: HOP-62
[14] = system: NCI-H460
[15] = system: RPMI-8226
[16] = system: NCI-H226
[17] = system: LOX IMVI
[18] = system: MDA-MB-435
[19] = system: OVCAR-8
[20] = system: SK-MEL-28
[21] = system: HCT-116
[22] = system: SN12C
[23] = system: HCC 2998
[24] = system: DU-145
[25] = system: COLO 205
[26] = system: RXF 393
[27] = system: CAKI-1
[28] = system: SF-268
[29] = system: A549
[30] = system: 786-0
[31] = system: SK-MEL-5
[32] = system: SR
[33] = system: U-251
[34] = system: A498
[35] = system: IGROV-1
[36] = system: MDA-MB-231
[37] = system: SK-OV-3
[38] = system: BT-549
[39] = system: ACHN
[40] = system: MCF7
[41] = system: K562
[42] = system: OVCAR-5
[43] = system: SNB-19
[44] = system: OVCAR-3
[45] = system: Hs-578T
[46] = system: HL-60
[47] = system: SW-620
[48] = system: UACC-62
[49] = system: HCT-15
[50] = system: TK-10
[51] = system: UACC-257
[52] = system: Malme-3M
[53] = system: CCRF-CEM
[54] = system: HT-29
[55] = system: SF-539
[56] = system: SK-MEL-2
[57] = system: OVCAR-4
[58] = system: M14
[59] = system: HOP-92

With `O=C1Nc2ccccc2/C1=N/Nc1ccccc1Cl` the GI50 [1] was 95.5 µM (inactive), the GI50 [2] was > 100 µM (inactive) and the GI50 [3] was 44.6 µM (inactive). For the same compound, the GI50 [4] was 75.2 µM (inactive), the GI50 [5] was 22.1 µM (inactive) and the GI50 [6] was 42.8 µM (inactive). The GI50 [7] was 37.8 µM (inactive), the GI50 [8] was 32.1 µM (inactive) and the GI50 [9] was 18.7 µM (inactive). For the same compound, the GI50 [10] was 63.1 µM (inactive), the GI50 [11] was 14.5 µM (inactive) and the GI50 [12] was 12.5 µM (inactive). The GI50 [13] was 11.1 µM (inactive), the GI50 [14] was 18.2 µM (inactive) and the GI50 [15] was 64.9 µM (inactive). For the same compound, the GI50 [16] was 53.2 µM (inactive), the GI50 [17] was 69 µM (inactive) and the GI50 [18] was > 100 µM (inactive). For the same compound, the GI50 [19] was 20.6 µM (inactive), the GI50 [20] was > 100 µM (inactive) and the GI50 [21] was 23.7 µM (inactive). The GI50 [22] was 21.7 µM (inactive), the GI50 [23] was 81.1 µM (inactive) and the GI50 [24] was 70 µM (inactive). The GI50 [25] was 24.9 µM (inactive), the GI50 [26] was 34.8 µM (inactive) and the GI50 [27] was 15.7 µM (inactive). The GI50 [28] was 29.8 µM (inactive), the GI50 [29] was 45.7 µM (inactive) and the GI50 [30] was 10.6 µM (inactive). For the same compound, the GI50 [31] was 68.5 µM (inactive), the GI50 [32] was 7.62 µM (inactive) and the GI50 [33] was 17.6 µM (inactive). For the same compound, the GI50 [34] was 18.7 µM (inactive), the GI50 [35] was 1.78 µM (inactive) and the GI50 [36] was 10.3 µM (inactive). The GI50 [37] was 16.1 µM (inactive), the GI50 [38] was > 100 µM (inactive) and the GI50 [39] was 3.58 µM (inactive). For the same compound, the GI50 [40] was > 100 µM (inactive), the GI50 [41] was 43.5 µM (inactive) and the GI50 [42] was 51.8 µM (inactive). The GI50 [43] was 29.8 µM (inactive), the GI50 [44] was 26.6 µM (inactive) and the GI50 [45] was 22.3 µM (inactive). For the same compound, the GI50 [46] was 68.1 µM (inactive), the GI50 [47] was > 100 µM (inactive) and the GI50 [48] was 89.3 µM (inactive). For the same compound, the GI50 [49] was > 100 µM, the GI50 [50] was 5.41 µM (inactive) and the GI50 [51] was 35.3 µM (inactive). For the same compound, the GI50 [52] was 77.3 µM (inactive), the GI50 [53] was 45.9 µM (inactive) and the GI50 [54] was > 100 µM (inactive). For the same compound, the GI50 [55] was 29 µM (inactive), the GI50 [56] was 63.5 µM (inactive) and the GI50 [57] was 3.57 µM (inactive). The GI50 [58] was 96.2 µM (inactive).

With `COc1ccc(/N=c2/oc3ccccc3cc2C(N)=O)cc1` the GI50 [1] was > 100 µM (inactive), the GI50 [2] was 80 µM (inactive) and the GI50 [3] was 39 µM (inactive). The GI50 [4] was > 100 µM (inactive), the GI50 [5] was 36.6 µM (inactive) and the GI50 [6] was 29.8 µM (inactive). The GI50 [7] was 13.4 µM (inactive), the GI50 [8] was 26.3 µM (inactive) and the GI50 [9] was 2.33 µM (inactive). For the same compound, the GI50 [10] was 43.3 µM (inactive), the GI50 [11] was > 100 µM (inactive) and the GI50 [12] was > 100 µM (inactive). The GI50 [13] was 17.2 µM (inactive), the GI50 [14] was > 100 µM (inactive) and the GI50 [59] was 27.8 µM (inactive). The GI50 [15] was > 100 µM (inactive), the GI50 [16] was 65.9 µM (inactive) and the GI50 [17] was 33.7 µM (inactive). The GI50 [18] was 92.5 µM (inactive), the GI50 [19] was 27.4 µM (inactive) and the GI50 [20] was > 100 µM (inactive). The GI50 [21] was 26 µM (inactive), the GI50 [22] was > 100 µM (inactive) and the GI50 [23] was > 100 µM (inactive). For the same compound, the GI50 [24] was > 100 µM (inactive), the GI50 [25] was > 100 µM (inactive) and the GI50 [26] was 40.5 µM (inactive). For the same compound, the GI50 [27] was 13.6 µM (inactive), the GI50 [28] was 17.9 µM (inactive) and the GI50 [29] was 42 µM (inactive). The GI50 [30] was 23.7 µM (inactive), the GI50 [31] was > 100 µM (inactive) and the GI50 [32] was > 100 µM (inactive). The GI50 [33] was 33.3 µM (inactive), the GI50 [35] was 24.5 µM (inactive) and the GI50 [36] was 30.5 µM (inactive). The GI50 [37] was 20 µM (inactive), the GI50 [38] was 32.3 µM (inactive) and the GI50 [39] was 18.4 µM (inactive). For the same compound, the GI50 [40] was 22.5 µM (inactive), the GI50 [41] was > 100 µM (inactive) and the GI50 [43] was 1.91 µM (inactive). For the same compound, the GI50 [44] was > 100 µM (inactive), the GI50 [45] was 18.7 µM (inactive) and the GI50 [46] was > 100 µM (inactive). The GI50 [47] was > 100 µM (inactive), the GI50 [48] was 34.8 µM (inactive) and the GI50 [49] was > 100 µM. The GI50 [50] was 22.5 µM (inactive), the GI50 [51] was > 100 µM (inactive) and the GI50 [53] was > 100 µM (inactive). For the same compound, the GI50 [54] was > 100 µM (inactive), the GI50 [55] was 23.1 µM (inactive) and the GI50 [56] was 55.2 µM (inactive). The GI50 [58] was 55.2 µM (inactive).
